Literature values, collected in PMC4368888, “Preclinical to Clinical Translation of CNS Transporter Occupancy of TD-9855, a Novel Norepinephrine and Serotonin Reuptake Inhibitor” (International Journal of Neuropsychopharmacology, 2015).

Key:
[1] = target: SERT (Homo sapiens, UniProt P31645); settings: approved dose (100mg) for fibromyalgia; ref Nogami et al., 2013; cited from earlier work
[2] = test system: SERT and NET; settings: in vitro; ref Wu et al., 2008; Tsuruda et al., 2010; cited from earlier work

Sequence of SERT (P31645 whole entry): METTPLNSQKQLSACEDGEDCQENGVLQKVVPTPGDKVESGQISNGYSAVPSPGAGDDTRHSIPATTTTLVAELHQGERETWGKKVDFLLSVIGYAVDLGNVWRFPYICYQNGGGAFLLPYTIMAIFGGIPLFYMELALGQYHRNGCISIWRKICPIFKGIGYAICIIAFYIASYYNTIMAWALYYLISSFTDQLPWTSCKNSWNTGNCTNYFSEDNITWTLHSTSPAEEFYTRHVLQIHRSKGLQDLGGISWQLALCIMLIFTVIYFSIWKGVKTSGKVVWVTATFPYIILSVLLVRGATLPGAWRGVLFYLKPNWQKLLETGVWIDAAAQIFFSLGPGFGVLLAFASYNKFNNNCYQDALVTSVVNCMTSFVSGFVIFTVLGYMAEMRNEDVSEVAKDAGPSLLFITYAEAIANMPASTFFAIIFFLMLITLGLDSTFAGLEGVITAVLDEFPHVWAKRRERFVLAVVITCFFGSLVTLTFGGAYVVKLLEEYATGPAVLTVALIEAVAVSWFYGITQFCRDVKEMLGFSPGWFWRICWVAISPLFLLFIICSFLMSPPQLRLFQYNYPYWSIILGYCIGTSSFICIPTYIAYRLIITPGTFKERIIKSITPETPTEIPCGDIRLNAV

CCN(CC)C(=O)C1(c2ccccc2)CC1CN (centres unmarked) [milnacipran]
occupancy of SERT [1]: ~ 40%

CNCC[C@@H](Oc1ccccc1C)c1ccccc1 [atomoxetine]
functional selectivity for NE [2]: ≥ 20 fold
